Laboratory results published in ChEMBL document CHEMBL1131989 (Bioorg Med Chem Lett, 1999).

Assays:
Cavia porcellus = species: Cavia porcellus; test: Concentration of compound required for evaluating efficacy in guinea pig ileum (GPI); assay type: functional, organism-based
Mus musculus = species: Mus musculus; test: Concentration of compound required for evaluating efficacy in mouse vas deferens (MVD); assay type: functional, organism-based
Mu-type opioid receptor = Mu-type opioid receptor (Homo sapiens, UniProt P35372); test: In vitro binding affinity towards mu opioid receptors was determined using [3H][p-Cl-Phe]- 4] DPDPE or [3H]deltorphin II
Chain of Mu-type opioid receptor (P35372 whole entry): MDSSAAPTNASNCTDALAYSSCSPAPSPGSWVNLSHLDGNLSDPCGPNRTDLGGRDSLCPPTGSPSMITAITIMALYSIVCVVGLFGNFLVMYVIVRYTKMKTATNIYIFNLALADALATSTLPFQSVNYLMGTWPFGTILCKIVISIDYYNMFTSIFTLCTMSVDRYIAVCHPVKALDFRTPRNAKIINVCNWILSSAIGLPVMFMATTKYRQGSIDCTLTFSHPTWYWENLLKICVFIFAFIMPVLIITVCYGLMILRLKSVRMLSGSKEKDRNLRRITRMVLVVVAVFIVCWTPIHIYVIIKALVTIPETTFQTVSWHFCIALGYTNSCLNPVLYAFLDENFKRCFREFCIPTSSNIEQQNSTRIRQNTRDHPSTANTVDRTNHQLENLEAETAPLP

[1] = target: Delta-type opioid receptor (Homo sapiens, UniProt P41143); test: In vitro binding affinity towards Opioid receptor delta 1 was determined using […]
Chain of Delta-type opioid receptor (P41143 whole entry): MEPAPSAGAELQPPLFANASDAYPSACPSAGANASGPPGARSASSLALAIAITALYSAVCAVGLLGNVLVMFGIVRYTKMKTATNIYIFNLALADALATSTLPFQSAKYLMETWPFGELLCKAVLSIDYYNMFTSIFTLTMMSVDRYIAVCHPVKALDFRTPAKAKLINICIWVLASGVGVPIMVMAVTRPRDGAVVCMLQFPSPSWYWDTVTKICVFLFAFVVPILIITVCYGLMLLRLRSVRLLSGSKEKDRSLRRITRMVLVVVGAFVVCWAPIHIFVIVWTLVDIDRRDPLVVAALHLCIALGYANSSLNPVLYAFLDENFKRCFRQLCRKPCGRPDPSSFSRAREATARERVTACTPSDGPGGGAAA

| SMILES | EC50 (Cavia porcellus) | EC50 (Mus musculus) | IC50 (Mu-type opioid receptor) | IC50 [1] |
| --- | --- | --- | --- | --- |
| CCCC[C@@H](N)C(=O)NNC(=O)[C@H](Cc1ccccc1)NC(=O)CNC(=O)[C@@H](C)NC(=O)[C@@H](N)Cc1ccc(O)cc1 | 5.2 nM | 95 nM | 5.9 nM | 71 nM |
| C[C@@H](NC(=O)[C@@H](N)Cc1ccc(O)cc1)C(=O)NCC(=O)N[C@@H](Cc1c[nH]c2ccccc12)C(=O)NNC(=O)[C@H](N)Cc1ccccc1 | 26 nM | 130 nM | 8.3 nM | 46 nM |
| CCCC[C@H](N)C(=O)NNC(=O)[C@H](Cc1ccccc1)NC(=O)CNC(=O)[C@@H](C)NC(=O)[C@@H](N)Cc1ccc(O)cc1 | 24 nM | 20 nM | 1.3 nM | 21 nM |
| C[C@@H](NC(=O)[C@@H](N)Cc1ccc(O)cc1)C(=O)NCC(=O)N[C@@H](Cc1ccccc1)C(=O)NNC(=O)[C@H](N)Cc1ccccc1 | 2.4 nM | 27 nM | 0.74 nM | 15 nM |
| C[C@@H](NC(=O)[C@@H](N)Cc1ccc(O)cc1)C(=O)NCC(=O)N[C@@H](Cc1ccccc1)C(=O)NNC(=O)[C@H](N)Cc1ccc(O)cc1 | 15 nM | 45 nM | 1.6 nM | 16 nM |
| C[C@@H](NC(=O)[C@@H](N)Cc1ccc(O)cc1)C(=O)NCC(=O)N[C@@H](Cc1ccccc1)C(=O)NN | 90 nM | 290 nM | 4.7 nM | 230 nM |
| C[C@@H](NC(=O)[C@@H](N)Cc1ccc(O)cc1)C(=O)NCC(=O)N[C@@H](Cc1ccccc1)C(=O)NNC(=O)[C@H](N)Cc1c[nH]c2ccccc12 | 7.1 nM | 15 nM | 2 nM | 29 nM |
| C[C@@H](NC(=O)[C@@H](N)Cc1ccc(O)cc1)C(=O)NCC(=O)N[C@@H](Cc1ccccc1)C(=O)NNC(=O)[C@@H](N)Cc1ccccc1 | 9.8 nM | 32 nM | 0.88 nM | 30 nM |
| C[C@@H](NC(=O)[C@@H](N)Cc1ccc(O)cc1)C(=O)NCC(=O)N[C@@H](Cc1ccccc1)C(=O)NNC(=O)[C@H](Cc1ccccc1)NC(=O)CNC(=O)[C@@H](C)NC(=O)[C@@H](N)Cc1ccc(O)cc1 [BIPHALIN] | 8.8 nM | 27 nM | 1.4 nM |  |
